The source of these data is US20260042755A1, “GPR6 INVERSE AGONISTS” (MapLight Therapeutics, Inc., priority 2022, published 2026).

The target of one assay is T1, GPR6 (Homo sapiens, UniProt P46095).
T1 construct: expressed in transfected cells; host or cells: CHO cells
Description: GPR6 antagonist functional cAMP assay (LANCE Ultra cAMP TR-FRET, CHO cells stably expressing GPR6). It counts as cell-based. Put shortly:
(§1)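 Suspended cells were plated at 10,000 per well in Krebs-Ringer bicarbonate buffer containing 0.1% BSA and 150 μM Ro 20-1724, then treated with compounds for 45 min at 37 °C. Intracellular cAMP was then quantified by TR-FRET immunoassay.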
Background: Cyclic AMP is a second messenger, typically raised through Gs and lowered through Gi signalling.

For another assay, the target named is T2, GPR3 (Homo sapiens, UniProt P46089).
T2 construct: expressed in transfected cells; host or cells: CHO cells
T2 sequence (P46089 whole entry, species assumed): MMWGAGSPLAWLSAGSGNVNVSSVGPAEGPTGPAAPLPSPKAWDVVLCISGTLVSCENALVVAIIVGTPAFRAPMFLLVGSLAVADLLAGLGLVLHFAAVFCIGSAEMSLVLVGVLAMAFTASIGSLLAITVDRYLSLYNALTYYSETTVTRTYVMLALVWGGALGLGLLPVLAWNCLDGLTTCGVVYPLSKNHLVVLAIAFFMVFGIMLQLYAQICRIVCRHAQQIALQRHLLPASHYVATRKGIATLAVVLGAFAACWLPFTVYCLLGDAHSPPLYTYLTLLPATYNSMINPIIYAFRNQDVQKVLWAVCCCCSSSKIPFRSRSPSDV
Description: GPR3 antagonist functional cAMP assay (LANCE Ultra cAMP TR-FRET, CHO cells stably expressing GPR3). The assay is classed as cell-based. Put shortly:
as §1

Setting [1] is: CHO cells stably expressing GPR6, cAMP assay.
Setting [2] is: CHO cells stably expressing GPR3, cAMP assay.
[3] abbreviates: CHO cells stably expressing GPR6, cAMP assay (Example 24).
[4] abbreviates: CHO cells stably expressing GPR3, cAMP assay (Example 24).
Setting [5] is: procedure as described in Example 24.

T1 sequence (P46095 whole entry): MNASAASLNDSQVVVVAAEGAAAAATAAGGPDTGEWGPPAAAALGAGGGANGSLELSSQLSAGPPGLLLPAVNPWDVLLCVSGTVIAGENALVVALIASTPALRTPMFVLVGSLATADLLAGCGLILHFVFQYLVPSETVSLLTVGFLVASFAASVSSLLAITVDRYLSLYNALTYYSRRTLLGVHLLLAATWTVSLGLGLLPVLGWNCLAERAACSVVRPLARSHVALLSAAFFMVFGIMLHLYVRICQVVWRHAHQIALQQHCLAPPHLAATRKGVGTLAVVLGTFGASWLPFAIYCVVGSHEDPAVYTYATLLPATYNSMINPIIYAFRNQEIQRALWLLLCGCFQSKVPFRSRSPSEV

Regarding `CC(C)(O)[C@@H](O)c1cc2nc(-c3cn[nH]c3)c(N3CCN(Cc4ccc(F)cc4F)CC3)nc2cn1` (single isomer, unassigned) [Compound 800], the IC50 lay in the range of 100 to 1000 nM against GPR6 (procedure of Example 24) and 1000 to 30000 nM at GPR3 (procedure of Example 24).
On to `CC(=O)N1CCc2nc(N3CCC(Cn4ccccc4=O)CC3)c(-c3cnn(C)c3)nc2C1` [Compound 522, 1-({1-[6-acetyl-3-(1-methyl-4-pyrazolyl)-5,6,7,8-tetrahydro-1,4,6-triaza-2-naphthyl]-4-piperidyl}methyl)-2(1H)-pyridinone], for which the half-maximal inhibitory concentration (IC50) against GPR6 (setting [1]) and against GPR3 (setting [2]) was 1000 to 30000 nM in each case.
With `CN1CC(c2cc3nc(N4CCC(Oc5ccc(F)cc5F)CC4)c(-c4cnn(C)c4)nc3cn2)OC1=O` (stereo not shown) [Compound 482, 5-(2-(4-(2,4-difluorophenoxy)piperidin-1-yl)-3-(1-methyl-1H-pyrazol-4-yl)pyrido[3,4-b]pyrazin-7-yl)-3-methyloxazolidin-2-one], the IC50 was in the range of 100 to 1000 nM on GPR6 (setting [3]) and 1000 to 30000 nM against GPR3 (setting [4]).
Consider `CC(C)(O)[C@H](O)c1cc2nc(N3CCC(Cc4ccc(F)cc4F)CC3)c(-c3cnn(CF)c3)nc2cn1` (single isomer, unassigned) [Compound 728], for which the values for the IC50 on GPR6 (procedure of Example 24) and on GPR3 (procedure of Example 24) were less than 100 nM and 100 to 1000 nM, respectively.
As to `CCCn1cc(-c2nc3c(nc2N2CCC(Oc4ccc(F)cc4F)CC2)CCN(C(C)=O)C3)cn1` [Compound 312, 1-{2-[4-(2,4-difluorophenoxy)piperidin-1-yl]-3-(1-propyl-1H-pyrazol-4-yl)-5H,6H,7H,8H-pyrido[3,4-b]pyrazin-6-yl}ethan-1-one], the IC50 against GPR6 (procedure of Example 24) is less than 100 nM; at GPR3 (procedure of Example 24) it was 1000 to 30000 nM.
On to `CC(=O)N1CCc2nc(N3CCCC(Oc4cc(F)ccc4F)C3)c(-c3cnn(C)c3)nc2C1` (stereo not shown) [Compound 339, 1-{2-[3-(2,5-difluorophenoxy)piperidin-1-yl]-3-(1-methyl-1H-pyrazol-4-yl)-5H,6H,7H,8H-pyrido[3,4-b]pyrazin-6-yl}ethan-1-one], for which the IC50 against GPR6 (procedure of Example 24) was no less than 30000 nM; against GPR3 (procedure of Example 24) it was 100 to 1000 nM.
With `CC(=O)N1CCc2nc(N3CCN(Cc4ccc(F)cc4F)CC3)c(-c3cnn(C)c3)nc2C1` [Compound 352, 1-(2-{4-[(2,4-difluorophenyl)methyl]piperazin-1-yl}-3-(1-methyl-1H-pyrazol-4-yl)-5H,6H,7H,8H-pyrido[3,4-b]pyrazin-6-yl)ethan-1-one], the IC50 on GPR6 (procedure of Example 24) is 100 to 1000 nM; against GPR3 (procedure of Example 24) it was 1000 to 30000 nM.
In the case of `CC(=O)N1CCc2nc(N3CCN(Cc4cc(Cl)ccc4F)CC3)c(-c3ccc(F)c(N)n3)nc2C1` [Compound 582, 1-[3-(6-amino-5-fluoro-2-pyridyl)-2-{4-[(5-chloro-2-fluorophenyl)methyl]-1-piperazinyl}-5,6,7,8-tetrahydro-1,4,6-triaza-6-naphthyl]-1-ethanone], the IC50 is less than 100 nM at GPR6 (setting [1]) and 1000 to 30000 nM against GPR3 (setting [2]).
Consider `CC(=O)N1CCc2nc(N3CCC(Oc4c(F)ccc(F)c4F)CC3)c(-c3cnn(C)c3)nc2C1` [Compound 455, 1-[3-(1-methyl-1H-pyrazol-4-yl)-2-[4-(2,3,6-trifluorophenoxy)piperidin-1-yl]-5H,6H,7H,8H-pyrido[3,4-b]pyrazin-6-yl]ethan-1-one], for which the IC50 on GPR6 (setting [3]) and against GPR3 (setting [4]) was 1000 to 30000 nM in each case.
Take `CNC(=O)c1ccc2nc(-c3nccn3COC)c(N3CCN(Cc4cc(Cl)ccc4Cl)CC3)nc2c1` [Compound 6, 3-{4-[(2,5-dichlorophenyl)methyl]piperazin-1-yl}-2-[1-(methoxymethyl)-1H-imidazol-2-yl]-N-methylquinoxaline-6-carboxamide]: the half-inhibitory concentration (IC50) at GPR6 (setting [5]) and on GPR3 (setting [5]) was 1000 to 30000 nM each time.
For the compound `CC(=O)N1CCc2nc(N3CCC(Oc4ccc(F)cc4F)CC3)c(-c3cnn(C(C)(C)C#N)c3)nc2C1` [Compound 196, 2-(4-{6-acetyl-2-[4-(2,4-difluorophenoxy)piperidin-1-yl]-5H,6H,7H,8H-pyrido[3,4-b]pyrazin-3-yl}-1H-pyrazol-1-yl)-2-methylpropanenitrile], the IC50 against GPR6 (setting [3]) and on GPR3 (setting [4]) was 1000 to 30000 nM each time.

Broadly, the IC50 is the concentration that inhibits the measured activity by half. A high value points to weaker potency in that assay.
